In article PMC8869984, “Multifunctional Silver(I) Complexes with Metronidazole Drug Reveal Antimicrobial Properties and Antitumor Activity against Human Hepatoma and Colorectal Adenocarcinoma Cells” (Cancers, 2022):
Converted amounts (≈) assume the structure as drawn. Read-outs that look alike come from different tables or passages of the source.

How the values were obtained:
Caco-2 cells [1] = assay: TPC assay (total protein content), 72 h exposure; type: cell-based, human; settings: Caco-2, TPC
HepG2 cells [2] = assay: LDH leakage assay (membrane integrity), 72 h exposure; type: cell-based, human
Description: (§1) The human hepatoma (HepG2) and colorectal adenocarcinoma (Caco-2) cells were purchased from the American Type Culture Collection: ATCC HB-8065 and ATCC HTB-37, respectively. These cells were cultured in Minimum Essential Medium Eagle (MEME) (ATCC). The murine fibroblasts cell line (Balb/c 3T3 clone A31) (gift from the Department of Swine Diseases of the National Veterinary Research Institute in Pulawy) was cultured in Dulbecco’s Modified Eagle Medium (DMEM) (ATCC). The media were supplemented with 10% BCS (Balb/c 3T3), 10% FBS (HepG2), 20% FBS (Caco-2), 1% L-glutamine, 1% antibiotic solution. The cells were maintained in 75 cm^2 cell culture flasks (NUNC) in a humidified incubator at 37 °C in an atmosphere of 5% CO2. The medium was refreshed every two or three days, and the cells were trypsinized by 0.25% trypsin–0.02% EDTA after reaching 70–80% confluence. Single cell suspensions were prepared and adjusted to a density of 2 × 10^5 cell/mL^−1 (HepG2), 1 × 10^5 cell/mL^−1 (Caco-2) and 5 × 10^4 cell/mL^−1 (Balb/c 3T3). The cell suspension was transferred to 96-well plates (100 µL/well) and incubated for 24 h before the exposure to the studied compounds. Stock solutions of ligands and metal complexes were prepared in sterile water and diluted with culture medium to obtain a concentration range from 0.1 to 10 µM. The final concentration of sterile water was 0.1% in the medium. […] As a negative control, cultured cells were grown in the absence of studied compounds. Each concentration was tested in six replicates in three independent experiments. Cytotoxicity was assessed after 72 h of exposure of the cells to compounds. The medium was not changed during the incubation time.
The integrity of the plasma membrane was assessed through the test of lactate dehydrogenase (LDH) release, which was monitored using the commercially available Cytotoxicity Detection Kit (LDH) (Roche Diagnostics, Warsaw, Poland). […] The absorbance was measured at 492 nm in a microplate reader Synergy HTX multi-mode reader (BioTek® Instruments Inc., Winooski, VT, USA) using a blank as a reference. […]

P. acnes ATCC 11827 = assay: micro-dilution broth method (MIC, MBC); type: cell-based, Propionibacterium acnes
S. aureus ATCC 25923 = assay: micro-dilution broth method (MIC, MBC); type: cell-based, Staphylococcus aureus
HepG2 cells [3] = assay: TPC assay (total protein content), 72 h exposure; type: cell-based, human; settings: for IC50: mean ± SD, n = 3
Description: as §1
This assay is based upon staining the total cellular protein (proliferation). After the incubation, the medium containing the drug was removed, and 100 µL Coomassie brilliant blue R-250 dye was added to each well. The plate was shaken for 10 min. Then, the stain was removed and the cells were rinsed twice with 100 µL of washing solution (glacial acetic acid/ethanol/water, 5:10:85, v:v:v). After that, 100 µL of the desorbing solution (1 M potassium acetate) was added, and plates were shaken again for 10 min. The absorbance was measured at 595 nm in a microplate reader Synergy HTX multi-mode reader (BioTek® Instruments Inc., Winooski, VT, USA) using a blank as a reference. Cytotoxicity was expressed as a percentage of the negative control.
The study was performed in three independent experiments. The obtained results are presented as mean values ± SD (standard deviation). The assessment of the cytotoxicity data used a one-way analysis of variance (ANOVA) followed by Dunnett’s post hoc test, which was applied to determine significance relative to the negative control.

Caco-2 cells [4] = assay: MTT assay (mitochondrial activity), 72 h exposure; type: cell-based, human; settings: Caco-2, MTT
HepG2 cells [5] = assay: MTT assay (mitochondrial activity), 72 h exposure; type: cell-based, human; settings: for IC50: mean ± SD, n = 3
Description: as §1
(§2) The metabolic activity of living cells was assessed by the measurement of the activity of dehydrogenases. […] The plate was shaken for 15 min at room temperature and transferred to a microplate reader Synergy HTX multi-mode reader (BioTek® Instruments Inc., Winooski, VT, USA) to measure the absorbance at 570 nm, using a blank as a reference. Cytotoxicity was expressed as a percentage of the negative control. […]

B. cereus ATCC 10876 = assay: micro-dilution broth method (MIC, MBC); type: cell-based, Bacillus cereus
Balb/c 3T3 cells = assay: MTT assay (mitochondrial activity), 72 h exposure; type: cell-based, murine
Description: as §1, §2

Caco-2 cells [6] = assay: LDH leakage assay (membrane integrity), 72 h exposure; type: cell-based, human; settings: Caco-2, LDH
[7] = test system: C. perfringens ATCC 13124; assay: microbe, parasite or virus in culture; type: cell-based, Clostridium perfringens
P. mirabilis ATCC 12453 = assay: micro-dilution broth method (MIC, MBC); type: cell-based, Proteus mirabilis
[8] = light stability in normal daylight, visual assessment; type: physicochemical; settings: for time to complete darkening: on both groundworks (paper, tissue paper)
[9] = P. acnes ATCC 11827, value in brackets
[10] = S. aureus ATCC 25923, value in brackets
[11] = B. cereus ATCC 10876, value in brackets
[12] = C. perfringens ATCC 13124, value in brackets
[13] = Clostridium perfringens, ATCC13124
[14] = P. mirabilis ATCC 12453, value in brackets
[15] = 1.25 µmol applied on tissue paper

| SMILES | MBC (P. acnes ATCC 11827; [9]) | MIC (P. acnes ATCC 11827; [9]) | MBC (S. aureus ATCC 25923; [10]) | MIC (S. aureus ATCC 25923; [10]) | MBC (B. cereus ATCC 10876; [11]) | MIC (B. cereus ATCC 10876; [11]) | MBC [7, 12] | MIC [7, 12] | MBC (P. acnes ATCC 11827; P. acnes ATCC 11827) | MBC (S. aureus ATCC 25923; S. aureus ATCC 25923) | MIC (S. aureus ATCC 25923; S. aureus ATCC 25923) | MIC (B. cereus ATCC 10876; B. cereus ATCC 10876) | MBC ([7]; C. perfringens ATCC 13124) | MIC ([7]; C. perfringens ATCC 13124) | MIC (P. acnes ATCC 11827; P. acnes ATCC 11827) | IC50 (HepG2 cells [3]) | MBC (P. mirabilis ATCC 12453; P. mirabilis ATCC 12453) | MIC (P. mirabilis ATCC 12453; P. mirabilis ATCC 12453) | MBC (P. mirabilis ATCC 12453; [14]) | MIC (P. mirabilis ATCC 12453; [14]) | also measured |
| --- | --- | --- | --- | --- | --- | --- | --- | --- | --- | --- | --- | --- | --- | --- | --- | --- | --- | --- | --- | --- | --- |
| Cc1ncc([N+](=O)[O-])n1CCO [MTZ, 2-Methyl-5-nitroimidazole-1-ethanol] | > 5.85 µM/mL | > 5.85 µM/mL | > 5.85 µM/mL | > 5.85 µM/mL | > 5.85 µM/mL | 2.93 µM/mL | 0.01 µM/mL | 0.01 µM/mL |  |  |  |  |  |  |  |  |  |  |  |  | IC50 (Caco-2 cells [1]; Homo sapiens, mean ± SD, n = 3): > 10 µM; IC50 (HepG2 cells [2]; Homo sapiens, mean ± SD, n = 3): > 10 µM; MBC (P. acnes ATCC 11827; Cutibacterium acnes, ATCC11827, P. acnes ATCC 11827, read-out: MBC): > 1000 µg/mL; MIC (P. acnes ATCC 11827; Cutibacterium acnes, ATCC11827, P. acnes ATCC 11827, read-out: MIC): > 1000 µg/mL; MBC (S. aureus ATCC 25923; Staphylococcus aureus, ATCC25923, S. aureus ATCC 25923, read-out: MBC): > 1000 µg/mL; MIC (S. aureus ATCC 25923; Staphylococcus aureus, ATCC25923, S. aureus ATCC 25923, read-out: MIC): > 1000 µg/mL; IC50 (HepG2 cells [3]; Homo sapiens): > 10 µM; IC50 (Caco-2 cells [4]; Homo sapiens, mean ± SD, n = 3): > 10 µM; IC50 (HepG2 cells [5]; Homo sapiens): > 10 µM; MBC (B. cereus ATCC 10876; Bacillus cereus, ATCC10876, B. cereus ATCC 10876, read-out: MBC): > 1000 µg/mL; MIC (B. cereus ATCC 10876; Bacillus cereus, ATCC10876, B. cereus ATCC 10876, read-out: MIC): 500 µg/mL (≈ 2920 µM); IC50 (Balb/c 3T3 cells; Mus musculus, BALB/c3T3, Balb/c 3T3, MTT, mean ± SD, n = 3): > 10 µM; IC50 (Caco-2 cells [6]; Homo sapiens, mean ± SD, n = 3): > 10 µM; MBC [7, 13]: 1.95 µg/mL (≈ 11.4 µM); MIC [7, 13]: 1.95 µg/mL (≈ 11.4 µM) |
| Cc1ncc([N+](=O)[O-])n1CCO.Cc1ncc([N+](=O)[O-])n1CCO.Cc1ncc([N+](=O)[O-])n1CCO.Cc1ncc([N+](=O)[O-])n1CCO.O=S(=O)([O-])[O-].[Ag+].[Ag+] [[Ag(MTZ)2]2SO4] | 0.46 µM/mL | 0.12 µM/mL | 0.014 µM/mL | 0.014 µM/mL | 0.12 µM/mL | 0.06 µM/mL | 0.004 µM/mL | 0.002 µM/mL | 500 µg/mL | 15.6 µg/mL | 15.6 µg/mL | 62.5 µg/mL | 3.9 µg/mL | 1.95 µg/mL |  |  |  |  |  |  | lowest concentration with decreased total protein content (Caco-2 cells [1]; Figure 6): 5.0 µM; lowest concentration with significant (p ≤ 0.05) effect (HepG2 cells [2]; Figure 6): 5.0 µM; lowest concentration with significant (p ≤ 0.05) effect (HepG2 cells [3]; Figure 6): 5.0 µM; lowest concentration with inhibition of mitochondrial activity (Caco-2 cells [4]; Figure 6): 1.0 µM; lowest concentration with significant (p ≤ 0.05) effect (HepG2 cells [5]; Figure 6): 5.0 µM; lowest concentration with significant (p ≤ 0.05) effect (Balb/c 3T3 cells; Balb/c 3T3, MTT, Figure 6): 5.0 µM; lowest concentration with significant (p ≤ 0.05) disintegration of cellular membranes (Caco-2 cells [6]; Figure 6): 0.5 µM |
| O=S(=O)([O-])[O-].[Ag+].[Ag+] [Ag2SO4, silver sulfate] | 1.6 µM/mL | 0.4 µM/mL | 0.1 µM/mL | 0.05 µM/mL | 1.6 µM/mL | 0.1 µM/mL | 0.8 µM/mL | 0.8 µM/mL | 500 µg/mL | 31.3 µg/mL | 15.6 µg/mL | 31.3 µg/mL | 250 µg/mL | 250 µg/mL | 125 µg/mL | > 10 µM | 31.3 mg/L | 31.3 mg/L | 0.1 µM/mL | 0.1 µM/mL | IC50 (HepG2 cells [5]): > 10 µM; MBC (B. cereus ATCC 10876; B. cereus ATCC 10876): 500 µg/mL; time of exposure after which darkening began ([8]; 1.25 µmol applied on paper): 10 min; time of exposure after which darkening began [8, 15]: 30 min; time to complete darkening [8]: 24 h |
| O=[N+]([O-])[O-].[Ag+] [AgNO3, Silver nitrate] | 0.37 µM/mL | 0.37 µM/mL | 0.185 µM/mL | 0.049 µM/mL | 0.37 µM/mL | 0.185 µM/mL | 0.37 µM/mL | 0.37 µM/mL | 62.5 µg/mL | 31.3 µg/mL | 7.8 µg/mL | 31.3 µg/mL | 62.5 µg/mL | 62.5 µg/mL | 62.5 µg/mL | > 10 µM | 15.6 mg/L | 7.8 mg/L | 0.09 µM/mL | 0.049 µM/mL | MBC (B. cereus ATCC 10876; B. cereus ATCC 10876): 62.5 µg/mL; time of exposure after which darkening began ([8]; 1.25 µmol applied on paper): 10 min; time of exposure after which darkening began [8, 15]: 30 min; time to complete darkening [8]: 24 h |
